# Laboratory results reported in US20230200424A1, “COMPOSITIONS COMPRISING CYS-PEPTIDES” (Evonik Operations GmbH, priority 2020, published 2023).
# Entries after “also recorded” stand apart in the source; their conditions may differ. Where two headings read alike, the source gives them in different places. Where a SMILES comes first, the peptide text is derived from it. Bridges are numbered along the chain shown (N, C = ends). Roman numbers before positions name the chains, in order.
# What was measured:
# [1] = Stabilization of 25 mM and 50 mM cysteine solutions against precipitation by Cys-dipeptides under oxidizing conditions (H2O2), turbidity at 600 nm; assay type: physicochemical; settings: H2O2 added, after 4.5 hours
# Experimental: (§1) Turbidity caused by precipitation was measured photometrically at 600 nm in a microtiter plate-based assay. Liquid volume per well was 200 μl and measurements were conducted over 24 hours at 37° C. in a microplate reader (Tecan). The plates were not covered with a lid.
# (§2) An experiment as described in example 1 was conducted in a microtiter plate. After two hours of incubation at 37° C., 14 μl of a 5 weight % H2O2 solution were added to each well to accelerate oxidation and evaluate stabilization under fully oxidized conditions. […] Turbidity measurements in the microplate reader were continued subsequently. Results are shown in Fehler! Verweisquelle konnte nicht gefunden werden.
# To evaluate if the above described stabilization is also possible by addition of other Cys-dipeptides, experiments as described in example 4 were conducted with the exception that reduced cysteine concentrations of 50 mM and 25 mM were used and that the concentrations of added Cys-dipeptides were 0 (=control), 5, 10, 25 and 50 mM. The effect of (Asp-Cys)2, (Cys-Asp)2, (Lys-Cys)2, (Cys-Lys)2, (Ala-Cys)2 and (Pro-Cys)2 was evaluated. All Cys-peptides were able to prevent precipitation from the cysteine solutions after addition of H2O2 Differences in stabilization efficiency were observed between the various Cys-Peptides at cysteine concentrations of 50 mM. The Cys-dipeptides containing lysine residues were the most efficient stabilizers and a molar Cys-peptide to cysteine ratio between 1:2 and 1:5 provided sufficient stability.
# [2] = Solubility of (Ala-Cys)2 and its solubilization by addition of cysteine, turbidity at 600 nm; assay type: physicochemical
# Experimental: Turbid suspensions of 50 mM (Ala-Cys)2 in phosphate buffer at pH=7 were prepared and increasing amounts of cysteine were added. The mixtures were incubated at 37° C. in a microtiter plate (liquid volume per well was 200 μl) and turbidity at 600 nm was measured after 30 minutes. At concentrations of 20 mM of cysteine and higher, (Ala-Cys)2 was fully solubilized and no further reduction of turbidity was measured. Solutions were visually transparent (see FIG. 2).
# [3] = Stabilization of 50 mM cysteine solution against precipitation by reduced and oxidized Cys-dipeptides under oxidizing conditions (H2O2), turbidity at 600 nm; assay type: physicochemical; settings: H2O2 added; for Turbidity at 600 nm: after 4.5 hours
# Experimental: as §1, §2
# To evaluate if the above described stabilization is also possible by addition of reduced Cys-dipeptides (=free thiol), the same experimental setup as described in example 4 was chosen. In this case, various concentrations of the reduced dipeptide Cys-Gly and of the oxidized dipeptide (Cys-Gly)2 were added to a 50 mM cysteine solution. Both Cys-peptides were able to prevent precipitation from the cysteine solutions after addition of H2O2.
# [4] = Stabilization of a 100 mM cysteine solution against precipitation by (Lys-Cys)2 under oxidizing conditions (H2O2), turbidity; assay type: physicochemical
# Experimental: as §1, §2
# The mixtures were incubated in a microplate for 2 hours at 37° C. and turbidity was measured photometrically. H2O2 was subsequently added to accelerate oxidation and evaluate stability against precipitation under fully oxidized conditions. Turbidity measurement was continued directly after H2O2 addition. With cysteine alone, the solution turned directly and visibly turbid, when H2O2 was added. With increasing amounts of added (Lys-Cys)2, the amount of precipitate measured via turbidity was reduced.
# [5] = Precipitation from a 100 mM cysteine solution with added (Lys-Cys)2, turbidity at 600 nm in microtiter plate; assay type: physicochemical; settings: 24 hours
# Experimental: Solutions of substances and dilutions thereof were prepared in 100 mM phosphate buffer, pH=7 in all experiments in all examples. Precipitation could be avoided in a 100 mM solution of cysteine in a 100 mM phosphate buffer at pH=7 by the addition of suitable concentrations of (Lys-Cys)2.
# as §1
# When 100 mM solutions of cysteine were prepared with 0, 100, 200 or 400 mM (Lys-Cys)2×2 HCl at pH=7, a surprising result was obtained. Precipitation could be seen and measured in the absence of added peptide. […] The precipitates could be observed visually and measured via turbidimetry (see FIG. 1).
# [6] = pH range between 3 and 9; cited from earlier work
# [7] = 25 mM cysteine solution, Cys-peptide 5 mM
# [8] = 25 mM cysteine solution, Cys-peptide 10 mM
# [9] = 25 mM cysteine solution, Cys-peptide 25 mM
# [10] = 25 mM cysteine solution, Cys-peptide 50 mM
# [11] = 50 mM cysteine solution, Cys-peptide 5 mM
# [12] = 50 mM cysteine solution, Cys-peptide 10 mM
# [13] = 50 mM cysteine solution, Cys-peptide 25 mM
# [14] = 50 mM cysteine solution, Cys-peptide 50 mM
"Turbidity at 600 nm [1, 7] [AU]","Turbidity at 600 nm [1, 8] [AU]","Turbidity at 600 nm [1, 9] [AU]","Turbidity at 600 nm [1, 10] [AU]","Turbidity at 600 nm [1, 11] [AU]","Turbidity at 600 nm [1, 12] [AU]","Turbidity at 600 nm [1, 13] [AU]","Turbidity at 600 nm [1, 14] [AU]",Compound,further results
0.078,0.039,0.040,0.042,1.539,1.379,0.762,0.118,(Pro-Cys)2,
,,,,,,,,C[C@H](N)C(=O)N[C@@H](CSSC[C@H](NC(=O)[C@H](C)N)C(=O)O)C(=O)O [(Ala-Cys)2] (I: H-Ala-Cys-OH / II: H-Ala-Cys-OH; disulfide I:2-II:2; N-terminus and C-terminus assumed),"solubility ([2]; 50 mM (Ala-Cys)2 suspension, phosphate buffer pH=7, 37° C., turbidity at 600 nm after 30 minutes, read-out: concentration of cysteine at which 50 mM (Ala-Cys)2 was fully solubilized): ≥ 20 mM; solubility ([2]; pH=7 and 37° C., read-out: maximum solubility): < 50 mM"
0.044,0.050,0.068,0.084,0.390,0.092,0.067,0.077,(Cys-Lys)2,
,,,,,,,,(Cys-Gly)2,Turbidity at 600 nm ([3]; Cys-peptide 5 mM): 1.07 AU; Turbidity at 600 nm ([3]; Cys-peptide 10 mM): 0.07 AU; Turbidity at 600 nm ([3]; Cys-peptide 25 mM): 0.04 AU; Turbidity at 600 nm ([3]; Cys-peptide 50 mM): 0.04 AU; peptide concentration at which precipitation was completely suppressed [3]: 25 mM
0.039,0.041,0.042,0.047,0.946,0.556,0.045,0.047,(Lys-Cys)2,"precipitate after H2O2 addition ([4]; 100 mM cysteine with 400 mM (Lys-Cys)2): no precipitate was observed; also recorded: remained completely clear; turbidity directly after addition of H2O2 ([4]; 100 mM cysteine with (Lys-Cys)2, 2 hours at 37° C., then H2O2): no immediate increase in turbidity was observed; turbidity increase after H2O2 addition ([4]; 100 mM cysteine, increasing concentrations of (Lys-Cys)2): strongly reduced; precipitation (visual, turbidimetry) ([5]; 100 mM cysteine with 100 mM (Lys-Cys)2, pH=7, 37° C.): accelerated precipitation; precipitation (visual, turbidimetry) ([5]; 100 mM cysteine with 200 mM (Lys-Cys)2, pH=7, 37° C.): effectively prevented precipitation; precipitation (visual, turbidimetry) ([5]; 100 mM cysteine with 400 mM (Lys-Cys)2, pH=7, 37° C.): effectively prevented precipitation"
0.038,0.039,0.038,0.040,1.453,1.301,0.039,0.042,(Asp-Cys)2,
,,,,,,,,N[C@@H](CSSC[C@H](N)C(=O)O)C(=O)O [cystine],solubility [6]: < 1 mM
0.081,0.037,0.038,0.040,1.702,1.523,0.279,0.039,(Cys-Asp)2,
,,,,,,,,Cys-Gly,Turbidity at 600 nm ([3]; Cys-peptide 5 mM): 0.58 AU; Turbidity at 600 nm ([3]; Cys-peptide 10 mM): 0.37 AU; Turbidity at 600 nm ([3]; Cys-peptide 25 mM): 0.26 AU; Turbidity at 600 nm ([3]; Cys-peptide 50 mM): 0.04 AU; peptide concentration at which precipitation was completely suppressed [3]: 50 mM
